Several values for one entry are separate records, joined by “and”; a condition that tells them apart may be missing. Equal entries are not always repeated.

Data on one substance can be found in patent US11440935B2, “3″,5″-dimethoxybenzoyl-3′-amino-3′-deoxy adenosine-5′-triphosphates and pharmaceutical uses thereof” (Danmir Therapeutics, LLC, priority 2018, dated 2022).

In one series the target is T1, P2Y1 (Homo sapiens, UniProt P47900).
T1 construct: expressed in transfected cells
In words: PDSP functional assay in vitro (PRESTO-Tango), agonist/antagonist. It is filed as cell-based. On the procedure: (§1) The assays were carried out utilizing the method set forth in Kroeze et al., PRESTO-Tango as an open-source resource for interrogation of the druggable human GPCRome, Nat. Struct. Mol. Biol. 2015 May; 22(5):362-9.

The next series addresses T2, P2Y12 (Homo sapiens, UniProt Q9H244).
T2 construct: expressed in transfected cells
The series is described as above. The class given is cell-based. On the procedure: as §1

Another series deals with T3, P2Y13 (Homo sapiens, UniProt Q9BPV8).
T3 construct: expressed in transfected cells
T3 sequence (Q9BPV8 1-354): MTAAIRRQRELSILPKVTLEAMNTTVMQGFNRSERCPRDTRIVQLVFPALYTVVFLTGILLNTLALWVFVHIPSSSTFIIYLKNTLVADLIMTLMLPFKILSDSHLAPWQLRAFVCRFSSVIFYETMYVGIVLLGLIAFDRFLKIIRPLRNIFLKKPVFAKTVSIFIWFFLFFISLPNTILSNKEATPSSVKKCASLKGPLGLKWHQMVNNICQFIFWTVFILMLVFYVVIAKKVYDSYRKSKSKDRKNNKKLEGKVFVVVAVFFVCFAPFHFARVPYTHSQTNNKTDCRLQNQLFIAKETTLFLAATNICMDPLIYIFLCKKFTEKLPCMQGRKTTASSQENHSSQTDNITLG
Described as above. The class given is cell-based. As to the method:
as §1

For the next series, the target named is T4, P2Y14 (Homo sapiens, UniProt Q15391).
T4 construct: expressed in transfected cells
T4 sequence (Q15391 1-338): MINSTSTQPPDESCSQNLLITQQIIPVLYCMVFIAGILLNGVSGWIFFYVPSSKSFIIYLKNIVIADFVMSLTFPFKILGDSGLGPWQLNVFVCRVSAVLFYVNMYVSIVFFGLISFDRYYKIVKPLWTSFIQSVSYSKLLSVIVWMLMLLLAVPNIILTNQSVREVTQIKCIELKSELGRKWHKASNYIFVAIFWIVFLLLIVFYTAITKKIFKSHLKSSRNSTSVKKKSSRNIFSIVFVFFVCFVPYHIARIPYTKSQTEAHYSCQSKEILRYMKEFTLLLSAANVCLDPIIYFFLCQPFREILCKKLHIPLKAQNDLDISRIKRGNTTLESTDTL
Described as above. The class given is cell-based. On the procedure: as §1

The target in the next series is T5, P2Y2 (Homo sapiens, UniProt P41231).
T5 construct: expressed in transfected cells
T5 sequence (P41231 whole entry): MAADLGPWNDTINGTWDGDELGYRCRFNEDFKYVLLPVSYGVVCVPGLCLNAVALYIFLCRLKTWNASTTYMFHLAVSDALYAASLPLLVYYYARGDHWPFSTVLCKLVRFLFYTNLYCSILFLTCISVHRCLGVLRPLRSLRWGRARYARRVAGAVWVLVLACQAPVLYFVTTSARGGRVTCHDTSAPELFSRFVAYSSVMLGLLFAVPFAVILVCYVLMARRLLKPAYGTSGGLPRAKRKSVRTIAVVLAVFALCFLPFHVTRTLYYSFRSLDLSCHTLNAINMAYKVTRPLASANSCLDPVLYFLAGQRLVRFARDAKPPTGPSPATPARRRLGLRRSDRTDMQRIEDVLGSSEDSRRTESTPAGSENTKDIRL
The description is as above. It is filed as cell-based. On the procedure: as §1

The next series concerns the target T6, P2Y4 (Homo sapiens, UniProt P51582).
T6 construct: expressed in transfected cells
Described as above. The class given is cell-based. On the procedure: as §1

The next series concerns the target T7, P2Y6 (Homo sapiens, UniProt Q15077).
T7 construct: expressed in transfected cells
Described as above. It is filed as cell-based. On the procedure: as §1

In series [1] the test system is conscious guinea-pigs. Briefly: Aerosolized ATP-induced cough in conscious free moving guinea-pigs. The class given is in vivo, guinea-pig. On the procedure:
(§2) This study was performed in 6 guinea-pigs. The housing room was constantly ventilated, and the temperature kept at ˜23° C. After quarantine, the animals were individually placed in a whole-body, unrestrained, plethysmograph chamber (model PLY3215, Buxco Electronics Inc., Troy, N.Y.) for ˜40 min once a day for two continuous days before the cough test. All GPs were weighed before the cough study.
(§3) ATP was purchased from Sigma-Aldrich (Cat #A2383-10G). Solutions of ATP used for aerosol challenge were freshly made just prior to use by dissolving the powder in 0.9% saline (NaCl) solution. Solutions of DT-0111 used for aerosol administration were freshly made by dissolving the powder in 0.9% saline (NaCl) solution.
A plethysmograph chamber was continuously flushed with normoxic (21% O2 and 79% N2) room air at 2 L/min. The same amount of air was drawn through the chamber base outlets using a Buxco bias flow regulator to keep the chamber bias flow balanced. ATP or DT solution was aerosolized by using a vibrating mesh nebulizer (Ireland Ltd., Galway Ireland, AG-AL1100). The output rate of delivered aerosol was around 0.5 ml/min with droplet size (volume median diameter) at 2.5-4.0 μm (manufacture's indications). The aerosol was mixed with airflow and directly delivered into the plethysmograph chamber. The latter was placed in a standard chemical fume hood (size: 3×6 ft) installed in a standard laboratory.
A guinea-pig was placed in the chamber again after adaptation. Following stabilization, #1 guinea-pig was exposed to aerosolized ATP at 6 mg/ml, 24 mg/ml, and then 48 mg/ml for 5 min with an interval of 30 min. The remaining animals (#2-#6 guinea-pigs) were exposed to aerosolized ATP at 48 mg/ml for 5 min. Approximately 140 min later, the same dose of ATP was repeated immediately after DT-0111 aerosol inhalation (12 mg/ml for 5 min). […] The cough sound and behavioral activities were continuously monitored and recorded before (for 3 min), during 5 min aerosol delivery, and 20 min after cessation of the delivery.
Setup of the cough recording system. The top of the plethysmograph chamber was connected with a plastic tube that was attached by the nebulizer. Normoxic air driven by the nebulizer controller was flowed into the chamber and sucked out by the bias flow regulator with the in and out flow volume balanced (2.0 L/min). To detect cough, a microphone system was mounted in the roof of the chamber to record sound; a video camera was placed outside of the chamber to monitor animal body posture; and a Buxco pneumotachograph (differential pressure transducer) attached to the chamber to record airflow. All signals generated by video camera, microphone, and pressure transducer were amplified and recorded continuously by PowerLab/8 sp (model ML 785; ADInstruments Inc., Colorado Springs, Colo.) and a computer with the LabChart Pro 7 software.
Cough count. A typical cough response, as reported before (Girard et al., Eur Respir J, 1995; Blasko et al., American Journal of Advanced Drug Delivery. 5:131-138, 2017; Corboz et al., Journal of Pharmacology and Experimental Therapeutics. 363: 348-357, 2017), was defined by the simultaneous appearance of: 1) a transient and great change in the airflow (a rapid inspiration followed by rapid expiration); 2) a typical cough sound with the peak power density at 1-2 kHz in frequency spectrum (sneeze at 3.5-6.5 kHz); and 3) animal body (head) posture and movement.

The test system of series [2] is conscious guinea-pigs. Briefly: Aerosolized ATP-induced bronchoconstriction in conscious guinea-pigs (sRaw). It is filed as in vivo, guinea-pig. Conditions: n=6. On the procedure: as §2, §3
A plethysmograph chamber was continuously flushed with normoxic (21% O2 and 79% N2) room air at 2 L/min. The same amount of air was drawn through the chamber base outlets using a Buxco bias flow regulator to keep the chamber bias flow balanced. ATP or DT solution was aerosolized by using a vibrating mesh nebulizer (Ireland Ltd., Galway Ireland, AG-AL1100). The output rate of delivered aerosol was around 0.5 ml/min with droplet size (volume median diameter) at 2.5-4.0 μm (manufacture's indications). […]
The results are expressed as percent change in airway pressure (sRaw). n=6; * p<0.05, vs. ATP 0.0 mg/ml; †p<0.05, DT-0111 vs. Ctrl at the same ATP dose.

The mark [3] stands for this setting: DT (12 mg/ml, 5 min) + ATP (48 mg/ml), per guinea-pig.
Setting [4] is: aerosolized DT-0111 12 mg/ml, n=5.

T1 sequence (P47900 whole entry): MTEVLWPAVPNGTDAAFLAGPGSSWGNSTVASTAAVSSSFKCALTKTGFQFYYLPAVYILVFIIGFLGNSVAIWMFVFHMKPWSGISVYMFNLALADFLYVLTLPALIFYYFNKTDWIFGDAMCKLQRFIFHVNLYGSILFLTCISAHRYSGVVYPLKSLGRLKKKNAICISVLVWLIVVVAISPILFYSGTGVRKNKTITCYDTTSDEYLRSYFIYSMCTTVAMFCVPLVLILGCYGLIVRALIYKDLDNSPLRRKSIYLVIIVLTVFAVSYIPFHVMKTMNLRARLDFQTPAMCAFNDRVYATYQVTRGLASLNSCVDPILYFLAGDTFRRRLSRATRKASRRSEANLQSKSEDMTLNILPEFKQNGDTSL
T2 sequence (Q9H244 whole entry): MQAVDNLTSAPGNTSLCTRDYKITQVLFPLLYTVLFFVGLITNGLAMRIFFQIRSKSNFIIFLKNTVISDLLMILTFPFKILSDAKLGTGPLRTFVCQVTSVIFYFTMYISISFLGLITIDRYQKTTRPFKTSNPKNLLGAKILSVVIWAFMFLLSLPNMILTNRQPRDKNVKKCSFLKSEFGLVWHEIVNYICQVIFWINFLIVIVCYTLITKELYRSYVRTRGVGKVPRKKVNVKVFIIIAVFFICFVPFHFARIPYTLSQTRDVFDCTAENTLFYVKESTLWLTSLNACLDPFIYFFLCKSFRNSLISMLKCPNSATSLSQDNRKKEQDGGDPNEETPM
T7 sequence (Q15077 whole entry): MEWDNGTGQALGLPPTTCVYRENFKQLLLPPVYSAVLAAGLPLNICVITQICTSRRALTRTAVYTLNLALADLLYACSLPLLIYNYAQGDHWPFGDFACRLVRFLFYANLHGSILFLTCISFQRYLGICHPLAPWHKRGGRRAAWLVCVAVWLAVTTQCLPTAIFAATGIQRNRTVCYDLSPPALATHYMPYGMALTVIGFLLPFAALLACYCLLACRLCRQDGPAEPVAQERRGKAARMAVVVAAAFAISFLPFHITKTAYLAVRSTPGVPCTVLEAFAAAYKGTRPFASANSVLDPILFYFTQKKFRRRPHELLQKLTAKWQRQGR
T6 sequence (P51582 whole entry): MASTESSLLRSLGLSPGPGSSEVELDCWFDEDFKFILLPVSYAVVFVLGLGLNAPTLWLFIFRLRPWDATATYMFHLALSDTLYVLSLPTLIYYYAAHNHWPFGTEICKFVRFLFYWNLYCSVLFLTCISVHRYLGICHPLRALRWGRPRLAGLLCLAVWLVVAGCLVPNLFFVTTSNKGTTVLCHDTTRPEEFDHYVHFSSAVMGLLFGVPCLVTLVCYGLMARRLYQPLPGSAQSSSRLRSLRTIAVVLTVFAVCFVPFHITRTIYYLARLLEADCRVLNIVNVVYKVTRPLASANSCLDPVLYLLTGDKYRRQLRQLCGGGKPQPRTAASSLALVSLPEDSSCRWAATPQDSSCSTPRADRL

Take “Sodium 3′-N-(3,5-dimethoxybenzoyl)-3′-deoxy-β-D-adenosine 5′-triphosphate [DT-0111]”: the “agonist or antagonist action at receptor” value at P2Y1, on P2Y12, at P2Y13, at P2Y14, at P2Y2 and at P2Y4 was “does not act as an agonist or antagonist” in each case. Besides, the “agonist or antagonist action at receptor” value at P2Y6 is “does not act as an agonist or antagonist”. Moreover, in the series on conscious guinea-pigs [1] (setting [3]), the “Bout Cough T1#” value was 0. The “Bout Cough T2#” value in the series with conscious guinea-pigs [1] (setting [3]) worked out at 0. For the same substance, the “Individual Cough” value with conscious guinea-pigs [1] (DT (12 mg/ml, 5 min) + ATP (48 mg/ml), per guinea-pig, listed as DT) was 0 (2×) and 1 (2×) and 7. Also, in the series with conscious guinea-pigs [1] (setting [4]), the “effect on ATP-induced bout of coughs” value is recorded as “blocked the bout of coughs in all tested animals”. In the series with conscious guinea-pigs [1] (setting [4]), the “effect on ATP-induced individual coughs” value was “little effect on individual coughs”. The “cough evoked by the compound per se” value in the series with conscious guinea-pigs [1] (aerosolized DT-0111 alone) is “did not evoke any cough”. In addition, the “effect on aerosolized ATP-induced bronchoconstriction” value in the series with conscious guinea-pigs [2] is “Suppresses”.
